Reference: ChEMBL document CHEMBL1687844, “In Vitro antiretroviral properties of S/GSK1349572, a next-generation HIV integrase inhibitor” (Antimicrob Agents Chemother, 2011)
One block for each compound: values may come before it. Active and inactive are the calls of the source. The rule behind the calls is not given here.

How the values were obtained:
[1] = tested on: Human immunodeficiency virus 1; assay: Antiviral activity against Human immunodeficiency virus 1 Bal infected in human PBMC assessed as incorporation of [methly-3H]dTTP to viral DNA after 7 days by reverse transcriptase activity in presence of 100% human serum; details: 168 h
[2] = tested on: Human immunodeficiency virus 1; assay: Antiviral activity against Human immunodeficiency virus 1 Bal infected in human PBMC assessed as incorporation of [methly-3H]dTTP to viral DNA after 7 days by reverse transcriptase activity in presence of 100% human serum relative to control
[3] = tested on: Human immunodeficiency virus 1; assay: Antiviral activity against NNRTI-resistant Human immunodeficiency virus 1 NL432 harboring non-nucleotide reverse transcriptase […] mutant infected in human HeLa-CD4 cells after 2 to 3 days by reverse transcriptase activity; assay type: functional, organism-based; details: Human immunodeficiency virus 1, NL432, CD4; pooled result: one value given for 9 cell lines, strains, targets or settings
[4] = tested on: Human immunodeficiency virus 1; assay: Antiviral activity against pseudo Human immunodeficiency virus 1 Bal infected in human CIP4 after 2 days by luciferase reporter gene assay; assay type: functional, organism-based; details: CIP4, 48 h
[5] = tested on: Human immunodeficiency virus 1; assay: Antiviral activity against Human immunodeficiency virus 1 3B infected in human MT4 cells assessed as incorporation of [methly-3H]dTTP to viral DNA after 7 days by reverse transcriptase activity in presence of 20% human serum albumin relative to control; assay type: functional
[6] = tested on: Human immunodeficiency virus 1; assay: Antiviral activity against Human immunodeficiency virus 1 3B infected in human MT4 cells assessed as incorporation of [methly-3H]dTTP to viral DNA after 7 days by reverse transcriptase activity in presence of […]; assay type: functional
[7] = tested on: Human immunodeficiency virus 1; assay: Antiviral activity against Human immunodeficiency virus 1 Bal infected in human PBMC assessed as incorporation of [methly-3H]dTTP to viral DNA after 7 days by reverse transcriptase activity; assay type: functional, organism-based; details: 168 h
[8] = tested on: Human immunodeficiency virus 1; assay: Antiviral activity against Human immunodeficiency virus 1 NL432 infected in human MT4 cells assessed as increase in 2-LTR circular DNA after 18 hrs by quantitative PCR; assay type: functional, organism-based
[9] = Cytotoxicity against human MT4 cells after 2 days by Cell titer Glo luminescent assay; assay type: cell-based
[10] = tested on: Human immunodeficiency virus 1; assay: Antiviral activity against Human immunodeficiency virus 1 NL432 infected in human MT4 cells assessed as inhibition of viral DNA integration after 18 hrs by quantitative PCR; assay type: functional, organism-based
[11] = tested on: Human immunodeficiency virus 1; assay: Antiviral activity against Human immunodeficiency virus 1 NL432 infected in human MT4 cells assessed as effect on viral DNA production after 18 hrs by quantitative PCR; assay type: functional, organism-based
[12] = Cytotoxicity against human IM9 cells after 2 days by Cell titer Glo luminescent assay; assay type: cell-based, IM-9
[13] = Cytotoxicity against PHA-stimulated human PBMC after 2 days by Cell titer Glo luminescent assay; assay type: cell-based
[14] = tested on: Human immunodeficiency virus 1; assay: Antiviral activity against Human immunodeficiency virus 1 3B infected in human MT2 cells assessed as inhibition of virus induced cytopathic effect measured after 2 to 3 days by PCR; assay type: functional, organism-based
[15] = tested on: Human immunodeficiency virus 1; assay: Ratio of EC90 for protein-activated Human immunodeficiency virus 1 Bal infected in human PBMC to EC50 Human immunodeficiency virus 1 Bal infected in human PBMC; assay type: functional
[16] = Cytotoxicity against human MOLT4 cells after 2 days by Cell titer Glo luminescent assay; assay type: cell-based, MOLT-4
[17] = tested on: Human immunodeficiency virus 2; assay: Antiviral activity against Human immunodeficiency virus 2 clinical isolate obtained from HIV infected patients; assay type: functional, organism-based
[18] = Cytotoxicity against unstimulated human PBMC after 2 days by Cell titer Glo luminescent assay; assay type: cell-based
[19] = Cytotoxicity against human U937 cells after 2 days by Cell titer Glo luminescent assay; assay type: cell-based, U-937
[20] = tested on: Human immunodeficiency virus 1; assay: Antiviral activity against pseudo Human immunodeficiency virus 1 Bal infected in human CIP4 after 2 days by luciferase reporter gene assay in presence of 2 mg/ml AAG relative to control; assay type: functional
[21] = tested on: Human immunodeficiency virus 1; assay: Antiviral activity against Human immunodeficiency virus 1 3B infected in human MT4 cells assessed as viral viability after 4 to 5 days by Cell titer Glo luminescent assay; assay type: functional, organism-based
[22] = tested on: Human immunodeficiency virus 1; assay: Antiviral activity against pseudo Human immunodeficiency virus 1 Bal infected in human CIP4 after 2 days by luciferase reporter gene assay in presence of 40 mg/ml HAS relative to control; assay type: functional
[23] = tested on: Human immunodeficiency virus 1; assay: Antiviral activity against PI-resistant Human immunodeficiency virus 1 NL432 harboring […] L24I/M46I/L63P/A71V/G73S/V82Tmutant infected in human MT4 cells after 2 to 3 days by reverse transcriptase activity; assay type: functional, organism-based; details: Human immunodeficiency virus 1, NL432, MT4
[24] = tested on: Human immunodeficiency virus 1; assay: Antiviral activity against Human immunodeficiency virus 1 3B harboring reverse transcriptase M184V mutant infected in human MT2 cells assessed as inhibition of virus induced cytopathic effect selected on day 14 after 4 passages by PCR analysis; assay type: functional, organism-based; details: MT2, 336 h
[25] = tested on: Human immunodeficiency virus 1; assay: Antiviral activity against Human immunodeficiency virus 1 3B harboring reverse transcriptase M184V, M184I, K82N mutant infected in human MT2 cells assessed as inhibition of virus induced cytopathic effect selected on day 14 after 4 passages by PCR analysis; assay type: functional, organism-based; details: MT2, 336 h
[26] = tested on: Human immunodeficiency virus 1; assay: Antiviral activity against Human immunodeficiency virus 1 3B harboring reverse transcriptase M184V, M184I mutant infected in human MT2 cells assessed as inhibition of virus induced cytopathic effect selected on day 14 after 4 passages by PCR analysis; assay type: functional, organism-based; details: MT2, 336 h
[27] = tested on: Human immunodeficiency virus 1; assay type: functional, organism-based; details: Human immunodeficiency virus 1, 3B, MT2
[28] = tested on: Human immunodeficiency virus 1; assay: Antiviral activity against Human immunodeficiency virus 1 3B harboring integrase T124A mutant gene infected in human MT2 cells assessed as inhibition of virus induced cytopathic effect selected after 14 passages measured after 2 to 3 days by PCR; assay type: functional, organism-based
[29] = tested on: Human immunodeficiency virus 1; assay type: functional, organism-based; details: Human immunodeficiency virus 1, 3B, MT2, 672 h
[30] = tested on: Human immunodeficiency virus 1; assay type: functional, organism-based; details: Human immunodeficiency virus 1, 3B, MT2; remark: listed apart in the source
[31] = tested on: Human immunodeficiency virus 1; assay type: functional, organism-based; details: Human immunodeficiency virus 1, 3B, MT2; remark: listed apart in the source
[32] = tested on: Human immunodeficiency virus 1; assay type: functional, organism-based; details: Human immunodeficiency virus 1, 3B, MT2; remark: listed apart in the source

EC50 [1]: 20 nM
EC90 [1]: 78 nM
SMILES: COc1cc2c(cc1Cc1cccc(Cl)c1F)c(=O)c(C(=O)O)cn2[C@H](CO)C(C)C
fold change (FC) [2]: 22

SMILES: C[C@@H]1CCO[C@H]2Cn3cc(C(=O)NCc4ccc(F)cc4F)c(=O)c([O-])c3C(=O)N12.[Na+] [DOLUTEGRAVIR SODIUM]
EC50 [3]: 1.3 nM
EC50 [4]: 2.2 nM
fold change (FC) [5]: 32
fold change (FC) [6]: 75
EC50 [7]: 0.51 nM
Activity [8]: Active
CC50 at 48 h [9]: 14000 nM
EC50 [1]: 38 nM
EC90 [1]: 152 nM
inhibition [10]: Active
Activity [11]: inactive
CC50 at 48 h [12]: 4800 nM
CC50 at 48 h [13]: 52000 nM
EC50 [14]: 0.26 nM
fold change (FC) [15]: 3
CC50 at 48 h [16]: 15000 nM
EC50 [17]: 0.8 nM
CC50 at 48 h [18]: 189000 nM
CC50 at 48 h [19]: 7000 nM
fold change (FC) [20]: 2.1
EC50 [21]: 0.71 nM
fold change (FC) [2]: 75
fold change (FC) [22]: 11
EC50 [23]: 0.36 nM

SMILES: Nc1ccn([C@@H]2CS[C@H](CO)O2)c(=O)n1 [LAMIVUDINE]
EC50 [24]: 800 nM
EC50 [25]: 800 nM
EC50 [14]: 800 nM
EC50 [26]: 800 nM

SMILES: Cc1nnc(C(=O)NC(C)(C)c2nc(C(=O)NCc3ccc(F)cc3)c(O)c(=O)n2C)o1 [RALTEGRAVIR POTASSIUM]
EC50 [27]: 6.4 nM
EC50 [1]: 5.6 nM
EC90 [1]: 23 nM
EC50 [28]: 0.26 nM
EC50 [29]: 0.26 nM
EC50 [30]: 6.4 nM
EC50 [14]: 0.26 nM
EC50 [31]: 1.3 nM
EC50 [32]: 32 nM
